Measurements from paper PMC5490409, “Anti-Mycobacterial Evaluation of 7-Chloro-4-Aminoquinolines and Hologram Quantitative Structure–Activity Relationship (HQSAR) Modeling of Amino–Imino Tautomers” (Pharmaceuticals, 2017).
In brackets after ≈: the same amount, converted by molar mass. Where two headings read alike, the source gives them in different places.

How the values were obtained:
[1] = tested on: Mycobacterium tuberculosis wild-type H37Rv strain; details: cited from earlier work; for pMIC (pMICExp): –Log of MIC on M. tuberculosis
in vitro = details: mouse
[2] = tested on: Mycobacterium tuberculosis wild-type H37Rv strain (ATCC 27294); test: microplate Alamar blue assay (MABA), anti-mycobacterial activity; assay type: cell-based
[3] = tested on: macrophage cell line J774 (ATCC TIB-67)
[4] = Mosmann's MTT cell viability (cytotoxicity) assay; details: mouse
[5] = tested on: MTB wild-type H37Rv strain; set-up: method as in PMID 15591164; details: cited from earlier work
MTB MDR strains = details: cited from earlier work
[6] = M. tuberculosis H37Rv, MABA, read-out: MIC
[7] = series D, –Log of MIC of Table 1, read-out: pMIC (pMICExp) (converted)

**Q.** For O=[N+]([O-])c1ccc(/C=N/Nc2ccnc3cc(Cl)ccc23)s1 [C03], which “pMIC (pMICExp)” value ([1]; series C) is on record?
**A.** 5.43

**Q.** Which “pMIC (pMICExp)” value ([1]; series A) does the source give for NCCCCCCNc1ccnc2cc(Cl)ccc12 [A06] here?
**A.** 4.05

**Q.** What does the source list for COc1ccc(OC)c(/C=N/Nc2ccnc3cc(Cl)ccc23)c1 [D07]?
**A.** viability at 48 h, 2.5 µg/mL (in vitro): 40%; viability at 48 h, 25 µg/mL (in vitro): 22%; viability at 48 h, 100 µg/mL (in vitro): 47%; MIC [2, 6]: 18.3 µM (≈ 6.25 µg/mL); MIC ([2]; read-out: pMIC (pMICExp)): 18.2 µM (≈ 6.22 µg/mL)

**Q.** Which “pMIC (pMICExp)” value ([1]; series A) does the source give for Clc1ccc2c(NCCNc3ccccc3)ccnc2c1 [A05] here?
**A.** 3.77

**Q.** Which results are given for Oc1ccc(O)c(/C=N/Nc2ccnc3cc(Cl)ccc23)c1 [D04]?
**A.** viability at 48 h, 2.5 µg/mL (in vitro): 100%; viability at 48 h, 25 µg/mL (in vitro): 100%; viability at 48 h, 100 µg/mL (in vitro): 70%; MIC [2, 6]: 79.7 µM (≈ 25 µg/mL); MIC [2, 7]: 79.4 µM; Cell Viability (%)/Dose (µg/mL) 2.5 [3]: did not show a significant cytotoxic profile

**Q.** Which viability at 48 h, 2.5 µg/mL (in vitro) does the source give for Oc1cccc(/C=N/Nc2ccnc3cc(Cl)ccc23)c1O [D02] here?
**A.** 83%

**Q.** And the viability at 48 h, 25 µg/mL (in vitro)?
**A.** 40%

**Q.** What about the viability at 48 h, 100 µg/mL (in vitro) of the same compound?
**A.** 83%

**Q.** What about the MIC [2, 6] of the same compound?
**A.** 79.7 µM (≈ 25 µg/mL)

**Q.** And the MIC [2, 7]?
**A.** 79.4 µM

**Q.** Which results are given for COc1ccc(C=NNc2ccnc3cc(Cl)ccc23)c(Cl)c1O [D09]?
**A.** viability at 48 h, 2.5 µg/mL (in vitro): 80%; viability at 48 h, 25 µg/mL (in vitro): 55%; viability at 48 h, 100 µg/mL (in vitro): 48%; MIC [2, 6]: 17.3 µM (≈ 6.27 µg/mL); MIC [2, 7]: 16.2 µM

**Q.** With ClCCCNc1ccnc2cc(Cl)ccc12 [A13] as the compound, how does the “pMIC (pMICExp)” value ([1]; series A) read?
**A.** 3.71

**Q.** Which viability at 48 h, 2.5 µg/mL (in vitro) does the source give for Oc1ccc(C=NNc2ccnc3cc(Cl)ccc23)cc1O [D03] here?
**A.** 78%

**Q.** What about the viability at 48 h, 25 µg/mL (in vitro) of the same compound?
**A.** 35%

**Q.** And the viability at 48 h, 100 µg/mL (in vitro)?
**A.** 72%

**Q.** And the MIC [2, 6]?
**A.** 319 µM (≈ 100 µg/mL)

**Q.** What about the MIC [2, 7] of the same compound?
**A.** 316 µM

**Q.** For NCCCCCCCCCCNc1ccnc2cc(Cl)ccc12 [A08], which MIC ([1]; series A lead, H37Rv) is on record?
**A.** 9.3 µM (≈ 3.11 µg/mL)

**Q.** What about the “pMIC (pMICExp)” value ([1]; series A) of the same compound?
**A.** 5.03

**Q.** Which “pMIC (pMICExp)” value ([1]; series C) does the source give for Clc1ccc2c(N/N=C/c3cccs3)ccnc2c1 [C04] here?
**A.** 4.96

**Q.** With COc1cc(/C=N/Nc2ccnc3cc(Cl)ccc23)cc(OC)c1OC [D08] as the compound, how does the viability at 48 h, 2.5 µg/mL (in vitro) read?
**A.** 93%

**Q.** And the viability at 48 h, 25 µg/mL (in vitro)?
**A.** 90%

**Q.** And the viability at 48 h, 100 µg/mL (in vitro)?
**A.** 69%

**Q.** And the MIC [2, 6]?
**A.** 16.8 µM (≈ 6.25 µg/mL)

**Q.** And the MIC [2, 7]?
**A.** 17 µM

**Q.** What does the source list for Clc1ccc2c(N/N=C/c3c(Cl)cccc3Cl)ccnc2c1 [D01]?
**A.** viability at 48 h, 2.5 µg/mL (in vitro): 100%; viability at 48 h, 25 µg/mL (in vitro): 90%; viability at 48 h, 100 µg/mL (in vitro): 86%; MIC [2, 6]: 143 µM (≈ 50 µg/mL); MIC [2, 7]: 141 µM; Cell Viability (%)/Dose (µg/mL) 2.5 [3]: did not show a significant cytotoxic profile

**Q.** With COc1cccc(/C=N/Nc2ccnc3cc(Cl)ccc23)c1OC [D05] as the compound, how does the viability at 48 h, 2.5 µg/mL (in vitro) read?
**A.** 98%

**Q.** What about the viability at 48 h, 25 µg/mL (in vitro) of the same compound?
**A.** 97%

**Q.** What about the viability at 48 h, 100 µg/mL (in vitro) of the same compound?
**A.** 85%

**Q.** What about the MIC [2, 6] of the same compound?
**A.** 7.3 µM (≈ 2.5 µg/mL)

**Q.** And the MIC [2, 7]?
**A.** 7.24 µM

**Q.** And the “Cell Viability (%)/Dose (µg/mL) 2.5” value [3]?
**A.** did not show a significant cytotoxic profile

**Q.** Which “pMIC (pMICExp)” value ([1]; series A) does the source give for [N-]=[N+]=NCCNc1ccnc2cc(Cl)ccc12 [A02] here?
**A.** 3.69

**Q.** For CC(C)Nc1ccnc2cc(Cl)ccc12 [A11], which “pMIC (pMICExp)” value ([1]; series A) is on record?
**A.** 3.64

**Q.** With Clc1ccc2c(N/N=C/c3ccn[nH]3)ccnc2c1 [C06] as the compound, how does the “pMIC (pMICExp)” value ([1]; series C) read?
**A.** 4.94

**Q.** For Clc1ccc2c(N/N=C/c3ccccn3)ccnc2c1 [C07], which “pMIC (pMICExp)” value ([1]; series C) is on record?
**A.** 4.35

**Q.** For Clc1ccc2c(N/N=C/c3ccc(Br)cc3)ccnc2c1 [B05], which “pMIC (pMICExp)” value ([1]; series B) is on record?
**A.** 5.16

**Q.** What does the source list for CC[C@@H](CO)NCCN[C@@H](CC)CO [EMB, ethambutol]?
**A.** MIC [2, 6]: 15.3 µM (≈ 3.13 µg/mL); viability at 48 h, 2.5 µg/mL [4]: 100%; viability at 48 h, 25 µg/mL [4]: 93%; viability at 48 h, 100 µg/mL [4]: 82%

**Q.** For NCCCCCCCCNc1ccnc2cc(Cl)ccc12 [A07], which “pMIC (pMICExp)” value ([1]; series A) is on record?
**A.** 4.69

**Q.** With Clc1ccc2c(N/N=C/c3cccc(Br)c3)ccnc2c1 [B04] as the compound, how does the “pMIC (pMICExp)” value ([1]; series B) read?
**A.** 5.06

**Q.** Which “pMIC (pMICExp)” value ([1]; series C) does the source give for O=[N+]([O-])c1ccc(/C=N/Nc2ccnc3cc(Cl)ccc23)o1 [C01] here?
**A.** 5.10

**Q.** For CCCCNc1ccnc2cc(Cl)ccc12 [A12], which “pMIC (pMICExp)” value ([1]; series A) is on record?
**A.** 4.27

**Q.** With CCCNCCNc1ccnc2cc(Cl)ccc12 [A03] as the compound, how does the “pMIC (pMICExp)” value ([1]; series A) read?
**A.** 3.42

**Q.** With COc1ccc(/C=N/Nc2ccnc3cc(Cl)ccc23)cc1OC [D06] as the compound, how does the viability at 48 h, 2.5 µg/mL (in vitro) read?
**A.** 65%

**Q.** What about the viability at 48 h, 25 µg/mL (in vitro) of the same compound?
**A.** 8%

**Q.** What about the viability at 48 h, 100 µg/mL (in vitro) of the same compound?
**A.** 20%

**Q.** What about the MIC [2, 6] of the same compound?
**A.** 7.3 µM (≈ 2.5 µg/mL)

**Q.** And the MIC [2, 7]?
**A.** 7.24 µM

**Q.** Which “pMIC (pMICExp)” value ([1]; series A) does the source give for ClCCNc1ccnc2cc(Cl)ccc12 [A01] here?
**A.** 4.29

**Q.** For CNc1ccnc2cc(Cl)ccc12 [A09], which “pMIC (pMICExp)” value ([1]; series A) is on record?
**A.** 3.28

**Q.** With CCCNc1ccnc2cc(Cl)ccc12 [A10] as the compound, how does the “pMIC (pMICExp)” value ([1]; series A) read?
**A.** 3.64

**Q.** With COc1nc2ccc(Br)cc2cc1[C@@H](c1ccccc1)[C@@](O)(CCN(C)C)c1cccc2ccccc12 [bedaquiline] as the compound, how does the MIC [5] read?
**A.** ≤ 0.1 µM

**Q.** What about the MIC (MTB MDR strains) of the same compound?
**A.** ≤ 0.5 µM

**Q.** For Clc1ccc2c(N/N=C/c3ccco3)ccnc2c1 [C02], which “pMIC (pMICExp)” value ([1]; series C) is on record?
**A.** 4.94

**Q.** For Clc1ccc2c(N/N=C/c3ccc[nH]3)ccnc2c1 [C05], which “pMIC (pMICExp)” value ([1]; series C) is on record?
**A.** 4.94
